Reference: the supplement of paper PMC12463676, “Small-molecule dissolution of stress granules by redox modulation benefits ALS models” (Nature Chemical Biology, 2025)

Columns and labels:
potassium arsenate = compound: O=[As]([O-])(O)O.[K+] [potassium arsenate]; experiment: thermal stability z-score vs DMSO; higher = more thermally stabilized by treatment; conditions: HeLa; arsenate concentration 1 mM
Method: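 Cellular thermal proteome profiling in HeLa cells treated with 1 mM arsenate for 1 h (DMSO pretreatment), heated to ten temperatures (37-66.3 °C). Soluble protein was quantified by TMT mass spectrometry relative to DMSO controls; the thermal stability score was transformed to a z-score; mean of n = 3 experiments.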

lipoamide = compound: NC(=O)CCCCC1CCSS1 [lipoamide]; experiment: as above; conditions: HeLa, lipoamide concentration 100 µM
Method: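 Cellular thermal proteome profiling in HeLa cells. Cells were treated with 100 µM lipoamide for 1 h, with or without 1 mM arsenate for a further 1 h, then heated to ten temperatures (37-66.3 °C), and soluble protein was quantified by TMT mass spectrometry relative to 0.1% DMSO controls. The thermal stability score (sum of log2 fold changes minus the abundance score) was transformed to a z-score; mean of n = 3 experiments.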

[1] = arsenate co-treatment: 1 mM arsenate 1 h
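Further: each temperature applied for 3 min, abundance score taken as mean log2 fold change at the two lowest temperatures, z-score obtained by mean subtraction and division by SD.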

Sequence of UniProt Q07065 (Q07065 whole entry): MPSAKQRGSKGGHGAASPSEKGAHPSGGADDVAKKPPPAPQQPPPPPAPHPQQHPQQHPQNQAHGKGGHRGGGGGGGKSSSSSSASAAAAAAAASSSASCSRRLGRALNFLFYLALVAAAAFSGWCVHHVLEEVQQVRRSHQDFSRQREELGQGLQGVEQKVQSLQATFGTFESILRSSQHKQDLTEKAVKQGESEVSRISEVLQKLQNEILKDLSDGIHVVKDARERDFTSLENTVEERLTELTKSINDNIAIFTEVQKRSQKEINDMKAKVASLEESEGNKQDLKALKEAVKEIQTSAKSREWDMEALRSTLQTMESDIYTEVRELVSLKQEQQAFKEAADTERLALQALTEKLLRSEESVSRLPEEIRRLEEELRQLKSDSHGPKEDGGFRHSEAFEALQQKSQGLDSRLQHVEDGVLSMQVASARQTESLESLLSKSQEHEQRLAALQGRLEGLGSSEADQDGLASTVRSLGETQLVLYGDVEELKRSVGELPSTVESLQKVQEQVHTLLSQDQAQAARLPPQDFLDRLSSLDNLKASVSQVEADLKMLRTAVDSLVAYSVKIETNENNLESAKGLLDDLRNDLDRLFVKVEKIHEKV
Sequence of UniProt Q14677 (Q14677 whole entry): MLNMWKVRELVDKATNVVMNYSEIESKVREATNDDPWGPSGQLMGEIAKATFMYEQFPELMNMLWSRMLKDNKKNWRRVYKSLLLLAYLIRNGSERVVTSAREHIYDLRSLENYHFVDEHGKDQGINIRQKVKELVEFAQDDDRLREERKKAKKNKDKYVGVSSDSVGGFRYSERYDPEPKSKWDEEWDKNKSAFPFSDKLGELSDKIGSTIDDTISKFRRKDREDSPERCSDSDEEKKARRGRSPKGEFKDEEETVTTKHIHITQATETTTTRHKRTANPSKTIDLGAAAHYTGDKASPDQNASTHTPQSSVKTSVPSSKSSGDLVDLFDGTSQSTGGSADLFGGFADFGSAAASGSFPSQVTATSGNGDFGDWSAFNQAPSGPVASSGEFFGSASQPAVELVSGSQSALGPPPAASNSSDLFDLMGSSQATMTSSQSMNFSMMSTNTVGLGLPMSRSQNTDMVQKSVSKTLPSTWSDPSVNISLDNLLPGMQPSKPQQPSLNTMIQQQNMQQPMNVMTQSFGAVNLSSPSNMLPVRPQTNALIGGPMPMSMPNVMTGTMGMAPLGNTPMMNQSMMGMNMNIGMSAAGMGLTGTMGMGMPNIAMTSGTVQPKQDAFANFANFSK
Sequence of UniProt Q8IYT2 (Q8IYT2 whole entry): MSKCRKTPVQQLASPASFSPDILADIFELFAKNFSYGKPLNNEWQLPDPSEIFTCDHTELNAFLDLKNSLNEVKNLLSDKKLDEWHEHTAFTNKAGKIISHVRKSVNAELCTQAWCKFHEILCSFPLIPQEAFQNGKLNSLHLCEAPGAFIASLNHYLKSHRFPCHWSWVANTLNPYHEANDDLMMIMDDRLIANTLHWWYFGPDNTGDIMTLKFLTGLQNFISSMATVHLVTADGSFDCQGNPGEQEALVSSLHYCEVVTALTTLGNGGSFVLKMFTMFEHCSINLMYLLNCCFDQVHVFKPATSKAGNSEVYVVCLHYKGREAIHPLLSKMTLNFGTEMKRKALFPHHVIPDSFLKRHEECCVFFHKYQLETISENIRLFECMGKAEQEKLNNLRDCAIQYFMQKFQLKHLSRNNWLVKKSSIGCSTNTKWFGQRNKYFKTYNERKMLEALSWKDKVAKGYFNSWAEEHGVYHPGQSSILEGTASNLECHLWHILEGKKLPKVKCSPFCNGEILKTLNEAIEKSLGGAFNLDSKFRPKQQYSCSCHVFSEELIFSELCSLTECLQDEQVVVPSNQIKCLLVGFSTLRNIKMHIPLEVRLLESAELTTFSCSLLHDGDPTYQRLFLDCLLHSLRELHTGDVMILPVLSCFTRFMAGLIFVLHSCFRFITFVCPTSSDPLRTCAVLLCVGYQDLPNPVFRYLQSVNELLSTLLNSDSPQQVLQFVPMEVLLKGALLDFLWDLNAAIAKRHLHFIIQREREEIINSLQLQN
Sequence of UniProt Q8NFW8 (Q8NFW8 whole entry): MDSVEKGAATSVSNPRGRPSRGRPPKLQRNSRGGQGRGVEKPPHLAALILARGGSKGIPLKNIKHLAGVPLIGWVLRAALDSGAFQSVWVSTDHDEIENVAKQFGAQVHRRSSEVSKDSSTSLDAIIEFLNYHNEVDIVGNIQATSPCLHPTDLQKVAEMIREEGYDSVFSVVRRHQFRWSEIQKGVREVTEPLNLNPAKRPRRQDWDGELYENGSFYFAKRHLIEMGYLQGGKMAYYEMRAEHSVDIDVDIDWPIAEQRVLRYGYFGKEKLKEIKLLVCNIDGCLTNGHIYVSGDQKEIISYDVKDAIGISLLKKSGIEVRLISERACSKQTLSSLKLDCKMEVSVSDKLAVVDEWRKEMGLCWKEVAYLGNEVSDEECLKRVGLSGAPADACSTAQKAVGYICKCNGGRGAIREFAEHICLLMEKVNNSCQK
Sequence of UniProt O76031 (O76031 whole entry): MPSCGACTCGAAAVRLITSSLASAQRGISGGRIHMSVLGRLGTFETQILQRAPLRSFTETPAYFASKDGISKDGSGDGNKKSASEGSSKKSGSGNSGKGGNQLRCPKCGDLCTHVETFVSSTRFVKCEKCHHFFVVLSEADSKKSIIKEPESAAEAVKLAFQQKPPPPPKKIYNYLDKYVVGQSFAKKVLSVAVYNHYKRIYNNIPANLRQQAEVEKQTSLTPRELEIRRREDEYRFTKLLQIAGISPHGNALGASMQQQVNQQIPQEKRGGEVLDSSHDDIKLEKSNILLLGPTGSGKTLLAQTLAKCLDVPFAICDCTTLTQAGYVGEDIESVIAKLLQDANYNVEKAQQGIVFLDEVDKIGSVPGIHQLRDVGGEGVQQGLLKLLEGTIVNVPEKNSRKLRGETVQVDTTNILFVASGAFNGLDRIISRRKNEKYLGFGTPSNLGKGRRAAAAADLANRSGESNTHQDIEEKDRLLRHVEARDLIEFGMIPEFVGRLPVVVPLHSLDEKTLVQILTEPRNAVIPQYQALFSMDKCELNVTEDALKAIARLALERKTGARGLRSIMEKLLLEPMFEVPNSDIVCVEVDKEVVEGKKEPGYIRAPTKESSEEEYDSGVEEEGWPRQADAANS
Sequence of UniProt Q00610 (Q00610 whole entry): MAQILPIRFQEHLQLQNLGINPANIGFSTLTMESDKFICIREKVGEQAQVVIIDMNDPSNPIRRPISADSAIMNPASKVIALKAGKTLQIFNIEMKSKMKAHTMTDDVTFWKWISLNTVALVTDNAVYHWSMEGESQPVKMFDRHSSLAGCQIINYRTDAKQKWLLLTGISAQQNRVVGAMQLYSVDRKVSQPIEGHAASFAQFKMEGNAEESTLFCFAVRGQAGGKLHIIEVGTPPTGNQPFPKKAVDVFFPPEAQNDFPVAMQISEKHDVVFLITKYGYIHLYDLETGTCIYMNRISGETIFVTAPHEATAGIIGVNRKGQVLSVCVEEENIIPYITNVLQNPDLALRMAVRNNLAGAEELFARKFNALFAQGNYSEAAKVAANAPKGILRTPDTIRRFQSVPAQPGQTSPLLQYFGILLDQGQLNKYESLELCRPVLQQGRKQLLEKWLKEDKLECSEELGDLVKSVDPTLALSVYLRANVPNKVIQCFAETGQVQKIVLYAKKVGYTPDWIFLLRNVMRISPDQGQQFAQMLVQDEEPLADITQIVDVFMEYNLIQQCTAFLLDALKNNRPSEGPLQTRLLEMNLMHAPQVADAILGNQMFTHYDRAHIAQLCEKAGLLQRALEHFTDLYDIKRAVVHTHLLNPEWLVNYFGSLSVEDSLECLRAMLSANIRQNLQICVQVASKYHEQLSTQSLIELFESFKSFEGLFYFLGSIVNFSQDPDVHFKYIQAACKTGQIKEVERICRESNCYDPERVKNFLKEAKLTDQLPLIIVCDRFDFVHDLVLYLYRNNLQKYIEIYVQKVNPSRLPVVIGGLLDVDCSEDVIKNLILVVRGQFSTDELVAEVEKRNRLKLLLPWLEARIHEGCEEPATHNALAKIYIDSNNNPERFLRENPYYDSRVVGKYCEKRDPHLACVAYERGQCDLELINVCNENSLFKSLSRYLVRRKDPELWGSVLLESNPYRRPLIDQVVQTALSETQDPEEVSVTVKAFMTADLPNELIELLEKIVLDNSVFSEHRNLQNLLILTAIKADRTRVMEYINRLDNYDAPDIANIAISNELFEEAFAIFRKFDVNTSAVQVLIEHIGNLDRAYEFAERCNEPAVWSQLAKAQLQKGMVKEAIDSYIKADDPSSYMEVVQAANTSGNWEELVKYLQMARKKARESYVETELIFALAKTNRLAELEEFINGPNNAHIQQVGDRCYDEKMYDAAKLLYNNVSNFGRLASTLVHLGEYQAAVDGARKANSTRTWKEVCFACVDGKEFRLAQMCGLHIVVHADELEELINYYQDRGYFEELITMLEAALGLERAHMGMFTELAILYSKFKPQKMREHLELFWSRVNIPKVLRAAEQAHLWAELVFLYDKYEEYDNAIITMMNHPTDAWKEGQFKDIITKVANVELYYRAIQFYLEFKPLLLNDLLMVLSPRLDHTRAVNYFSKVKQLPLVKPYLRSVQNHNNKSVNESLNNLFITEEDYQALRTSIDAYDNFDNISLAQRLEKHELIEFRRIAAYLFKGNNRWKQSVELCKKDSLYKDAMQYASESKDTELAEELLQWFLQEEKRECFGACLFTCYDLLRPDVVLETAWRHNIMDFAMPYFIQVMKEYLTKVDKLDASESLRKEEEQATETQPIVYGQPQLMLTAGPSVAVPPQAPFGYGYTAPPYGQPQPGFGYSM
Sequence of UniProt Q9Y696 (Q9Y696 whole entry): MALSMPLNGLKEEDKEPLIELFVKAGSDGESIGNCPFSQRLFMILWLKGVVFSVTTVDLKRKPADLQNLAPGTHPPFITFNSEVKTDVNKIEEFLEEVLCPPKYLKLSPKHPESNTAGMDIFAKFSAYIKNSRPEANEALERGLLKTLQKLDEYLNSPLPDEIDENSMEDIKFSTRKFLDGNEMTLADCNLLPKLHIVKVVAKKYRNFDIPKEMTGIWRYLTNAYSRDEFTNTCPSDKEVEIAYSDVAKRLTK

Row | Target | thermal stability z-score (potassium arsenate) | thermal stability z-score (lipoamide; [1]) | thermal stability z-score (lipoamide; arsenate co-treatment: none)
1 | CHTOP (UniProt Q9Y3Y2) | 0.73 | 1.86 | 0.726
2 | CHUK (UniProt O15111) | 0.578 | 0.887 | 0.727
3 | CHURC1 (UniProt Q8WUH1) | -0.122 | -0.539 | -0.988
4 | CIAO1 (UniProt O76071) | -1.32 | 0.164 | 0.0342
5 | CIAPIN1 (UniProt Q6FI81) | 0.186 | 0.671 | 0.397
6 | CIC (UniProt Q96RK0) | -0.261 | 0.0454 | -0.131
7 | CINP (UniProt Q9BW66) | 0.256 | -0.0967 | -0.169
8 | CIRBP (UniProt Q14011) | -0.194 | 0.435 | -0.192
9 | CISD1 (UniProt Q9NZ45) | -0.578 | 0.257 | 0.707
10 | CISD2 (UniProt Q8N5K1) | -0.581 | 0.556 | 0.316
11 | CISD3 (UniProt P0C7P0) | 0.0591 | 1.09 | 1.49
12 | CIT (UniProt O14578) | -0.76 | 0.342 | -0.767
13 | CIZ1 (UniProt Q9ULV3) | -0.0848 | 0.0439 | -0.505
14 | CKAP2 (UniProt Q8WWK9) | -0.222 | -0.00358 | 0.0789
15 | CKAP4 (UniProt Q07065) | -0.938 | -3.96 | -2.84
16 | CKAP5 (UniProt Q14008) | 0.286 | -0.095 | -0.0102
17 | CKB (UniProt P12277) | -1.02 | -0.249 | -0.245
18 | CKMT1A (UniProt P12532) | 0.795 | 0.957 | 0.965
19 | CKS1B (UniProt P61024) | 0.573 | 0.525 | 0.603
20 | CKS2 (UniProt P33552) | 0.179 | 0.199 | 0.17
21 | CLASP1 (UniProt Q7Z460) | -0.0658 | -0.602 | -0.311
22 | CLASP2 (UniProt O75122) | 0.0564 | -0.0563 | -0.198
23 | CLASRP (UniProt Q8N2M8) | 0.14 | -0.693 | -0.133
24 | CLCC1 (UniProt Q96S66) | 0.408 | -5.63 | -5.9

Row | Target | thermal stability z-score (potassium arsenate) | thermal stability z-score (lipoamide; [1]) | thermal stability z-score (lipoamide; arsenate co-treatment: none)
25 | CLCN3 (UniProt P51790) | -0.374 | -0.368 | -0.225
26 | CLCN7 (UniProt P51798) | 0.0852 | -0.792 | -0.489
27 | CLEC16A (UniProt Q2KHT3) | -0.437 | 0.0777 | -0.0307
28 | CLIC1 (UniProt O00299) | -0.144 | 0.85 | 0.348
29 | CLIC3 (UniProt O95833) | -0.0618 | 0.00456 | 0.0631
30 | CLIC4 (UniProt Q9Y696) | -0.572 | 0.264 | 0.427
31 | CLINT1 (UniProt Q14677) | 1.08 | 0.199 | 0.142
32 | CLIP1 (UniProt P30622) | -0.345 | -0.0952 | 0.0784
33 | CLMP (UniProt Q9H6B4) | -0.738 | 0.616 | 1.03
34 | CLNS1A (UniProt P54105) | -1.75 | 0.733 | 0.695
35 | CLP1 (UniProt Q92989) | -0.0689 | -0.189 | -0.158
36 | CLPB (UniProt Q9H078) | -0.0952 | -0.507 | -0.275
37 | CLPP (UniProt Q16740) | 0.151 | 0.049 | -0.299
38 | CLPTM1 (UniProt O96005) | 0.0364 | -3.11 | -2.81
39 | CLPTM1L (UniProt Q96KA5) | 0.279 | -2.13 | -1.51
40 | CLPX (UniProt O76031) | 0.139 | -0.306 | -0.172
41 | CLSPN (UniProt Q9HAW4) | 1.12 | -0.352 | 0.214
42 | CLSTN1 (UniProt O94985) | 1.06 | -0.443 | 0.255
43 | CLTA (UniProt P09496) | 0.655 | 1.35 | 1.54
44 | CLTB (UniProt P09497) | 0.557 | 1.48 | 1.89
45 | CLTC (UniProt Q00610) | -0.263 | 0.447 | 0.409
46 | CLTCL1 (UniProt P53675) | 0.858 | 0.147 | 0.15
47 | CLU (UniProt P10909) | 0.0163 | -1.81 | -2.08
48 | CLUH (UniProt O75153) | -0.134 | 0.336 | 1.47

Row | Target | thermal stability z-score (potassium arsenate) | thermal stability z-score (lipoamide; [1]) | thermal stability z-score (lipoamide; arsenate co-treatment: none)
49 | CLYBL (UniProt Q8N0X4) | 0.695 | 0.208 | 0.433
50 | CMAS (UniProt Q8NFW8) | -0.438 | -0.0844 | -0.141
51 | CMBL (UniProt Q96DG6) | -0.162 | 0.865 | 0.482
52 | CMC1 (UniProt Q7Z7K0) | 0.65 | 0.741 | -0.328
53 | CMC2 (UniProt Q9NRP2) | 0.218 | 0.275 | 0.104
54 | CMIP (UniProt Q8IY22) | -0.236 | -0.151 | -0.146
55 | CMPK1 (UniProt P30085) | 2.02 | -0.127 | 0.136
56 | CMSS1 (UniProt Q9BQ75) | -2.12 | 0.27 | 0.0303
57 | CMTR1 (UniProt Q8N1G2) | 1.15 | -0.292 | 0.406
58 | CMTR2 (UniProt Q8IYT2) | -0.0808 | 0.107 | 0.13
59 | CNBP (UniProt P62633) | -0.088 | 0.317 | 0.142
60 | CNDP2 (UniProt Q96KP4) | 0.248 | 0.517 | 0.0712
61 | CNN2 (UniProt Q99439) | 0.356 | 0.281 | 0.653
62 | CNNM2 (UniProt Q9H8M5) | -0.152 | 0.397 | 0.656
63 | CNNM3 (UniProt Q8NE01) | -0.561 | -0.728 | 0.192
64 | CNNM4 (UniProt Q6P4Q7) | 0.213 | 0.923 | 0.49
65 | CNOT1 (UniProt A5YKK6) | 1.04 | -0.186 | 0.0688
66 | CNOT2 (UniProt Q9NZN8) | 1.62 | -0.563 | 0.153
67 | CNOT3 (UniProt O75175) | 1.26 | -0.0612 | 0.0363
68 | CNOT4 (UniProt O95628) | 0.494 | -0.171 | -0.00856
69 | CNOT6 (UniProt Q9ULM6) | 0.03 | -0.197 | -0.108
70 | CNOT7 (UniProt Q9UIV1) | 1.32 | -0.248 | 0.895
71 | CNOT10 (UniProt Q9H9A5) | 0.677 | -0.532 | 0.228
72 | CNOT11 (UniProt Q9UKZ1) | 0.0729 | -0.0705 | 0.0824
